Work on `Cn1nc2c(-c3ccc(Cl)cc3Cl)cccc2c1CCC#N` yielded a melting point of 192 to 193 °C. In the case of `COC(=O)c1cc(NS(C)(=O)=O)ccc1F`, the melting point is reported as 135 to 137 °C. Work on `Cc1ncc([N+](=O)[O-])n1C(=O)Nc1ccccc1` yielded a melting point of 218 to 220 °C. Work on `NNc1nc(C(F)(F)F)nc(-c2ccc(F)cc2)c1-c1ccccc1` yielded a melting point of 175 to 177 °C. Work on `CCCCOC(=O)[C@@H]1OC(c2ccc(C#Cc3ccc(C4O[C@@H](C(=O)OCCCC)[C@H](C(=O)OCCCC)O4)cc3)cc2)O[C@H]1C(=O)OCCCC` yielded a melting point of 54 °C. With `CCOC(=O)C(CC#N)(C(=O)OCC)C1COC(=O)C1` (stereo not drawn) the melting point was 77 to 78 °C. `CC(=O)N(c1ccc(O)cc1)N1CCCCC1` showed a melting point of 217 to 218 °C. With `CCOC(=O)c1cc(Cl)cc(N)c1Cl` the melting point was 63 to 65 °C. Compound `CC(C)c1cc(C(=O)Nc2ccc(CCC(=O)O)cc2)oc1C(C)C` has a melting point of 139 to 141 °C. `CN(Cc1ccc(F)cc1)C1CCN(c2ccc(C(=O)O)cc2)CC1` showed a melting point of 256 to 258 °C. With `CC(C)n1nc(-c2c(-c3ccccc3)nn3ccc(C(=O)NCCN(C)C)cc23)ccc1=O` the melting point was 157 to 158 °C. With `C/C(=C(\C#N)C(N)=S)N1CCCCCCC1` the melting point was 149 to 150 °C. With `O=C(NCc1cccc(-c2nc(=O)c3ccccc3s2)n1)c1cccs1` the melting point was 208 to 209 °C. Compound `Cc1ccc(CC2CCN(C(=O)C(=O)Nc3ccc4c(c3)CC(=O)N4)CC2)cc1` has a melting point of 235 to 237 °C. `O=C1CCC(N2C(=O)c3cccc(Nc4ccccc4)c3C2=O)C(=O)N1` (stereo not drawn) showed a melting point of 214 to 216 °C. With `CNC(=NC#N)NCCSCc1cccc(NC(N)=NCC(F)(F)F)n1` the melting point was 137 to 140 °C. `CN1C(=O)N2CCOC2(c2ccccc2)c2cc(Cl)ccc21` (stereo not drawn) showed a melting point of 124 to 125 °C. For `COc1ccc2nscc2c1`, the melting point was 51 to 55 °C. Work on `C[C@H]1C=CC2=C[C@@H](O)C[C@H](OC(=O)C(C)(C)Oc3ccc(F)cc3)[C@@H]2[C@H]1CC[C@@H]1C[C@@H](O)CC(=O)O1` yielded a melting point of 142 to 145 °C. `CN(Cc1ccccc1)S(=O)(=O)CC#N` gave a melting point of 68 to 70 °C. Work on `O=C(NCC(F)(F)F)C1(CCCCSc2nccs2)c2ccccc2-c2ccccc21` yielded a melting point of 143 to 144 °C. `OCCOCCN1CCN(C2=Nc3ccccc3Sc3ccccc32)CC1` showed a melting point of 172 to 173 °C. With `Cc1cc(S(=O)(=O)O)c(NC(=O)Nc2cccc(Br)c2)cc1Cl` the melting point was 275 °C. Compound `CCOC(=O)c1c(N2CCN(C(=O)c3cccs3)CC2)c2cccnc2n(Cc2ccccc2)c1=O` has a melting point of 168 °C. With `CS(=O)(=O)c1ccc(-c2oc(CO)cc(=O)c2Oc2ccc(F)cc2)cc1` the melting point was 206 °C. Work on `C=C(C)n1c(=O)n(CCN2CCC(N(C)C(=O)c3ccccc3)CC2)c2ccccc21` yielded a melting point of 120 to 122 °C. In the case of `COc1cccc(C23CCCC=C2C(=O)N(C)C(=O)C3)c1` (stereo not drawn), the melting point is reported as 139 to 141 °C. Work on `COc1cc(-c2ncn(CCO)c2-c2ccc(C(F)(F)F)cc2)cc(OC)c1OC` yielded a melting point of 208 to 210 °C. With `Cc1cc(-c2ccc(C(F)(F)F)cc2)cn2c(-c3cc(-c4ncon4)c(S(N)(=O)=O)s3)cnc12` the melting point was 285 °C. With `C=CCN(CC=C)c1nc(NC(=O)CCCC(=O)OC)n2oc(=O)nc2n1` the melting point was 164 to 165 °C. `Nc1ncccc1OCc1c(F)cc(F)cc1F` showed a melting point of 122 to 124 °C. With `COc1c(Cc2c[nH]cn2)cccc1C(N)=O` the melting point was 160 °C. `CCOC(=O)C(Cc1cccc2cccnc12)(NC=O)C(=O)OCC` gave a melting point of 120 to 122 °C. Work on `ClC(Cl)=CCOc1cc(Cl)c(OCc2ccc3ccccc3c2)c(Cl)c1` yielded a melting point of 86.7 °C. For `CON=C(c1ccccc1OCc1ccc(Cl)cc1Cl)n1ccnc1`, the melting point was 122 to 123 °C. Work on `COc1ccc(C(=O)Nc2c(Cl)cncc2Cl)cc1OC1COCC1OCc1ccccc1` (stereo not drawn) yielded a melting point of 190 to 191 °C. `Cc1nc2cccc(OCC(C)(C)NC(=O)c3cccc(O)c3)c2c(N)c1C(=O)O` showed a melting point of 195 to 198 °C. In the case of `CCCc1c(O)ccc2c(=O)cc(-c3ccc(C(=O)OCC)cc3)oc12`, the melting point is reported as 225 to 226 °C. In the case of `CCOC=Nc1c(SC(F)(F)F)c(C#N)nn1-c1c(Cl)cc(C(F)(F)F)cc1Cl`, the melting point is reported as 68 °C. Compound `CNC(=O)CC1CN=C(c2cc3cc(Oc4ccc(S(C)(=O)=O)nc4)cc(OC4CCOCC4)c3[nH]2)S1` (stereo not drawn) has a melting point of 143 to 144 °C. In the case of `COCCOc1ccc(CC(OC)C(=O)O)c(Oc2ncc(C(F)(F)F)cc2Cl)c1` (stereo not drawn), the melting point is reported as 93 to 96 °C. `CCOC(=O)c1cnc2nn(C)cc2c1N1CCCCC1` showed a melting point of 185 to 188 °C. Compound `O=C1CCC(N2Cc3c(CNC(=O)NC4CCCCC4)cccc3C2=O)C(=O)N1` (stereo not drawn) has a melting point of 309 to 311 °C. `COc1cc(Nc2nnc(Cc3ccncc3)c3ccccc23)cc(OC)c1OC` gave a melting point of 110 to 111 °C. Work on `c1ccc2c(c1)C1CCC2c2c(OCC3CO3)cccc21` (stereo not drawn) yielded a melting point of 127 to 130 °C. `COC(=O)CCCCCCCCCCCCCCCCCCCCCN1C(=O)c2ccccc2C1=O` gave a melting point of 88.5 to 90.5 °C. For `NS(=O)(=O)c1ccc(Nc2ccccc2)c([N+](=O)[O-])c1`, the melting point was 155 °C. With `CC(C)N(C)c1cccc([N+](=O)[O-])c1C#N` the melting point was 70 to 72 °C. For `CCc1cc(C(=O)c2ccccc2Cl)c(-n2c(C)nnc2CNC(=O)Nc2cccc(C(=O)O)c2)s1`, the melting point was 178 to 180 °C. `CC1(C)CCC(C)(C)c2cc(C(O)C#Cc3ccc(C(=O)O)cc3)ccc21` (stereo not drawn) gave a melting point of 146 to 147 °C. `COc1ccc2c(c1OC)C(=O)c1c-2c(N2CCNCC2)nc2ccc(Cl)cc12` showed a melting point of 168 to 169 °C. Work on `CC1(C(=O)NCCc2cccs2)CC1` yielded a melting point of 86 to 88 °C. For `CNC1=NN(C(=O)c2ccccc2)C(C)(C)S1`, the melting point was 130 to 136 °C. Work on `FC(F)(F)COc1ccc(Cc2ccncc2)cc1` yielded a melting point of 51 to 53 °C. With `O=C(O)c1ccc(C(=O)Nc2cccc3cc(Br)cnc23)cc1` the melting point was over 300 °C. `COc1ccc(O)c2c1C(=O)N(Cc1ccccc1)S2=O` (stereo not drawn) gave a melting point of 235 to 237 °C. Compound `Cc1ccc(C=Nc2cc(F)ccc2C(=O)O)cc1` has a melting point of 144 to 145 °C. For `Cc1ccc(S(=O)(=O)Nc2cccc3c2Nc2ccc(O)cc2CO3)s1`, the melting point was 184 to 188 °C. Compound `N#Cc1c(-c2ccc(Cl)cc2)[nH]c(SC(F)(F)F)c1Br` has a melting point of 241 to 243 °C. Compound `CSc1nn2c(N3CCN(C)CC3)cc(C)nc2c1S(=O)(=O)c1cccnc1` has a melting point of 188 to 189 °C. In the case of `Cc1ccc(Cc2cnc(NCCSCc3csc(CN(C)C)n3)[nH]c2=O)cn1`, the melting point is reported as 154 to 155 °C. In the case of `CN(C1CCN(CC(C)(C)O)CC1)S(=O)(=O)c1ccc(Nc2nccc(Nc3ccc(F)c(F)c3)n2)cc1`, the melting point is reported as 234 to 235 °C. `CCOP(=O)(CCNC(=O)c1c(CC)nc2cc(OC)c(OC)cc2c1-c1ccc(OC)c(OC)c1)OCC` gave a melting point of 157 to 158 °C. In the case of `C=Cc1c(N=C2NCCN2)cccc1OC`, the melting point is reported as 126 °C. With `CC(C)NC(=O)CCC(=NNC(N)=S)c1ccccc1` the melting point was 66 to 71 °C. With `COc1ccc(C(=O)N[C@H](C(=O)N2CCC[C@H]2C(=O)N[C@@H](C(C)C)[C@@H](O)C(F)(F)F)C(C)C)cc1` the melting point was 168 to 170 °C. For `CC(Cc1ccc(OCC(=O)O)c(F)c1)NS(=O)(=O)c1ccccc1` (stereo not drawn), the melting point was 148 to 150 °C. `CCCNC(=O)NC1Cc2ccc(C3=NNC(=O)CC3)cc2C1` (stereo not drawn) showed a melting point of 214 to 216 °C. In the case of `O=C1N(Cc2cnccc2C(F)(F)F)c2ccccc2C12COc1cc3c(cc12)OCCO3` (stereo not drawn), the melting point is reported as 131 to 132 °C. In the case of `CC(C)(C)OC(=O)Nc1cc(=O)c2cc(Oc3ccccc3)c(NS(C)(=O)=O)cc2o1`, the melting point is reported as 147 to 150 °C. In the case of `O=C1NCC(CCl)C1(c1ccccc1)c1ccccc1` (stereo not drawn), the melting point is reported as 218 to 219 °C. With `CC1CCCCN1C(=O)c1nc(-c2ccccc2)nc2ccccc12` (stereo not drawn) the melting point was 150 °C. In the case of `COc1ccc(NC(=O)C(=O)N2CCC(Cc3ccc(F)cc3)CC2)cc1`, the melting point is reported as 105 to 107 °C. `CC1=C(C(=O)OCCN(C)Cc2ccc(Cl)cc2)C(c2cccc([N+](=O)[O-])c2)C(C(=O)OCC2CC2)=C(C)N1` (stereo not drawn) showed a melting point of 115 to 116 °C. Compound `Cc1nn(C)c2c(Cl)nc(C3CC3)nc12` has a melting point of 87 to 90 °C. Work on `CCCN1CCN(c2nc3ccc(N=CN(C)C)cc3nc2N2CCN(CCC)CC2)CC1` yielded a melting point of 95.5 to 98 °C. In the case of `CC(CCCO)C1CCC2C3C(O)CC4CC(O)CCC4(C)C3CC(O)C12C` (stereo not drawn), the melting point is reported as 226 to 227 °C. Work on `O=C(C=Cc1ccc(N2CCCC2)cc1)c1ccc2c(c1)CCC2` yielded a melting point of 162 to 164 °C. In the case of `COc1nccnc1NS(=O)(=O)c1cccc(F)c1`, the melting point is reported as 142 to 143 °C. For `CC(C)OC(=O)N1CCC(c2nc3cc(-c4ccc(C(=O)O)cn4)ccc3o2)CC1`, the melting point was 239 to 242 °C. With `Nc1ncnc2c1ncn2Cc1oc2ccc(F)cc2c(=O)c1-c1cccc(F)c1` the melting point was 180 to 183 °C. `COc1ccc(C(=O)C2=CCCCC2)c(Cl)c1Cl` showed a melting point of 126 to 129 °C. Work on `CCCCCCCCCCCCCCC(=O)NC1CC(C)(C)N(CC#N)C(C)(C)C1` yielded a melting point of 101 °C. Compound `O=C(CCl)Nc1c(Cl)cccc1SSc1cccc(Cl)c1NC(=O)CCl` has a melting point of 188 to 189 °C. `CN1CCN(c2ccc(Nc3ncc4c(n3)S/C(=C/c3ccc(C#N)cc3)C(=O)N4)cc2)CC1` gave a melting point of 274 to 276 °C. `Cc1nc2cc3c(cc2s1)C1(CO3)C(=O)N(CCC(C)C)c2ccccc21` (stereo not drawn) gave a melting point of 137 to 138 °C. `O=Cc1ccc2c(c1)S(=O)(=O)c1ccccc1N2c1ccccc1` gave a melting point of 260 to 272 °C. Work on `CCCCC(=N)NC(=O)Nc1ccc([N+](=O)[O-])cc1` yielded a melting point of 187 to 191 °C. `COc1cc2c(Nc3ccc(Sc4nccn4C)c(Cl)c3)c(C#N)cnc2cc1N1CCN(CCn2ccnc2)CC1` showed a melting point of 251 to 253 °C. For `C=C(C#N)C(=O)NCCCc1ccccc1`, the melting point was 83 °C. In the case of `COC(=O)NC(CC(=O)c1ccc(Cl)cc1)C(=O)O` (stereo not drawn), the melting point is reported as 141 to 142 °C. Compound `N#Cc1nc(-c2nn(-c3c(Cl)cc(C(F)(F)F)cc3Cl)nc2Cl)[nH]c1C#N` has a melting point of 206 to 208 °C. `COc1ccc2cc([C@H](C)C(=O)OCC[Si](C)(C)C)ccc2c1` showed a melting point of 81.5 to 82.5 °C. Compound `CCOC(=O)c1cn(-c2ccccc2)c2c(F)c(F)c(F)cc2c1=O` has a melting point of 190 to 192 °C. `O=C(CCC(=O)c1ccccc1)NCc1ccccc1` showed a melting point of 110 to 112 °C. Work on `NCC1CCCN(c2ncc3ncnc(Nc4ccc(F)c(Cl)c4)c3n2)C1` (stereo not drawn) yielded a melting point of 132 to 137 °C. `Cc1nc(Cl)c2c(C)cn(-c3c(Cl)cc(Br)cc3Br)c2n1` showed a melting point of 157 to 159 °C. Work on `CC(=O)Oc1ccc(CC(=O)Nc2ncc(-c3ccc(OC(C)=O)cc3)nc2Cc2ccccc2)cc1` yielded a melting point of 225 to 227 °C.

Reference: a melting point compilation (Tetko et al.; mined from patent text by program, amines drawn as free bases though some values may be those of a salt)
